Results: patent US10683520B2, “Polycarboxylic acid extraction” (PURAC BIOCHEM BV, priority 2011, dated 2020)

Assay: Forward extraction of acid from salt-containing aqueous feed into methyl-isobutylketone and back extraction into water
Assay type: physicochemical
Details: 20° C.; for DBE (distribution ratio in back extraction, [acid]organic/[acid]water): MIBK organic phase / pure water; for [acid] aqueous fraction after back extraction: feed with 15 wt. % MgCl2 (acid in feed per Table 1.1), back extraction into pure water; for [acid] aqueous fraction after back extraction / DFE (distribution ratio in forward extraction, [acid]organic/[acid]water) / concentration ratio (acid concentration in product / acid concentration in feed): MIBK; for DFE (distribution ratio in forward extraction, [acid]organic/[acid]water) / concentration ratio (acid concentration in product / acid concentration in feed): feed with 15 wt. % MgCl2
Text: Forward extraction and back extraction as used in the method of the invention are based on the difference in solubility of the carboxylic acid in water and the organic solvent at different temperatures. The solubility of a compound in one solvent relative to another solvent can be expressed in terms of the distribution ratio (DR). […] The distribution ratio may be defined as the ratio of the carboxylic acid concentration dissolved in the organic phase ([carboxylic acid]organic) over the concentration of the carboxylic acid dissolved in water ([carboxylic acid]water), provided that the two phases are in equilibrium with each other: DR=[carboxylic acid]organic/[carboxylic acid]water (1)
The general procedure is set up to mimic a continuous extraction process.
A feed solution was prepared comprising acid and salt in the amounts stipulated in the table. The solutions were stirred overnight.
1000 g of this feed solution was mixed with approximately 100 g of methyl-isobutylketone as solvent and stirred at 20° C. for minimum of 15 minutes. The mixture was transferred to a separation funnel where phases were separated. Samples of both phases were taken for analysis. Then approximately 100 g of organic phase was mixed with 10 g of pure water and stirred for minimum of 15 min at 20° C. Subsequently the whole mixture is again transferred to the separation funnel, phases are left to separate and samples of both phases are taken. Samples were analysed on acid content.
These tables also give the concentration ratio, which is the ratio between the acid concentration in the product and the acid concentration in the feed.
The composition of the starting solution and the acid concentration in the products is in Table 2.1 below.

SMILES | DBE (distribution ratio in back extraction, [acid]organic/[acid]water) | [acid] aqueous fraction after back extraction | DFE (distribution ratio in forward extraction, [acid]organic/[acid]water) | concentration ratio (acid concentration in product / acid concentration in feed)
O=C(O)/C=C/C(=O)O [Fumaric acid, fumaric acid] | 0.24 | 0.21 wt. % | 1.75 | 1.8
C=C(CC(=O)O)C(=O)O [Itaconic acid, itaconic acid] | 1.07 | 2.8 wt. % | 2.83 | 1.9
